Common to all, as to assay type: biochemical
Assay [1] has as its system human plasma polymerase. Description: Resurrection of plasma polymerase activity after treatment with cysteine-modifying agents. The conditions noted are these: for Polymerase activity after second incubation with indicated substance (% of control): no destroying agent in first incubation; for Conditions required to reactivate polymerase activity treated with the agent: 3 mM agent, then reactivating substances; for Polymerase activity after second incubation with DTT (% of control) / Polymerase activity after second incubation with MSA (% of control) / Polymerase activity after second incubation with cysteine (% of control) / Polymerase activity after second incubation with glutathione (% of control): 3 mM destroying agent first. As to the method: A set of human plasma samples (60% plasma in water) was first incubated with 3 mM of indicated cysteine-modifying substance or water (as control) at room temperature for 1 hour. Serial dilutions of five potentially reactivating substances were then added and the samples were incubated for another hour. Each sample was finally diluted 1:20 and residual RT activity was determined with Cavidi® HS kit Lenti RT. The total reduction in substance concentration between sample incubation and RT assay was 200 times. The RT activities recovered were recalculated into percent of the activity of a control consisting of plasma incubated in absence of additions during both incubation steps.

Assay [2] has as its system human plasma polymerase. Nature of the assay: Elimination of plasma polymerase without purification (substance, then cysteamine). As to conditions: one hour at room temperature, then 20 mM cysteamine; no purification. The procedure: A) EDTA plasma from a healthy blood donor, B) FIV virus diluted in inactivated FCS (devoid of RT activity) or C) in Dulbeco minimal essential medium with 5% FCS were diluted 1:1 and incubated with indicated concentration of 5,5′-dithiobis-(2-nitrobensoic acid) for one hour at room temperature (20° C.). Each sample was then serially diluted in fourfold steps in conditioning buffer (B). Cysteamine to a final concentration of 20 mM was then added to all samples and the set was incubated for another hour at room temperature. The RT activity of each sample was then determined using Cavidi® HS kit Lenti RT. 15 μl of each sample was added to 135 μl reaction mixture giving a final cysteamine concentration in assay of 2 mM. The RT activity recovered at the three first dilutions corresponding to 7.5, 1.9 and 0.5 μl sample per RT assay was recalculated into percentage of a control incubated in absence of substance and plotted against the substance concentration, see FIG. 6.

For assay [3], the system named is human plasma RT. Nature of the assay: Selective destruction of endogenous RT activity in plasma, protocol I. The conditions noted are these: EDTA plasma with disrupted lymphocytes, 1 hour at room temperature. The procedure: EDTA plasma with disrupted lymphocytes from a healthy blood donor and FIV diluted in inactivated foetal calf serum (totally devoid of plasma RT activity) were incubated for 1 hour at room temperature with indicated concentration of: A) 5,5′-dithiobis-(2-nitrobensoic acid), B) thimerosal. The samples were separated according to “Protocol for determination of retroviral RT from material which contains RT blocking antibodies”. The RT activities recovered were determined with an RT assay (Cavidi HS-kit Lenti RT).

The subject of assay [4] is FIV RT of cell culture origin. Nature of the assay: RT assay (Cavidi HS-kit Lenti RT) with added components, FIV RT. As to conditions: 12 ng odT, 100% = no addition. As to the method: (§1) The effect of addition of indicated components to RT reaction mixture devoid of primer (Cavidi HS-kit Lenti RT) was investigated. EDTA plasma from two healthy blood donors (1 μl/assay), recombinant HIV 1 RT or FIV RT of cell culture origin was used as enzyme.

The test system of assay [5] is unidentified RT activity from human plasma. Description: RT assay (Cavidi HS-kit Lenti RT) with added components, human plasma polymerase. As to conditions: 12 ng odT, 100% = no addition. As to the method:
as §1

In assay [6] the target is T1, recombinant HIV 1 RT (Human immunodeficiency virus type 1 group M subtype B, UniProt P04585).
T1 construct: recombinant HIV 1 RT or FIV RT of cell culture origin was used as enzyme
Nature of the assay: RT assay (Cavidi HS-kit Lenti RT) with added components, recombinant HIV 1 RT. The conditions noted are these: 12 ng odT, 100% = no addition. The procedure:
as §1

The mark [7] stands for this setting: 0.1 M final concentration in RT assay.
The mark [8] stands for this setting: 1 mM final concentration in RT assay.
[9] abbreviates: 2.5 10^-6 M final concentration in RT assay.

With `O[C@H](CS)[C@H](O)CS` (racemic) [DTT, Dithiothreitol], the “Polymerase activity after second incubation with indicated substance (% of control)” value in assay [1] (1.1 mM substance) was determined as 260%; in assay [1] (3.3 mM substance), 613%; in assay [1] (10 mM substance), 767%; in assay [1] (30 mM substance), 860%.
For the molecule `O=C(O)c1cc(SSc2ccc([N+](=O)[O-])c(C(=O)O)c2)ccc1[N+](=O)[O-]` [5,5′-Dithiobis-(2-nitrobenzoic acid)], the “Conditions required to reactivate polymerase activity treated with the agent” value in assay [1] is reported as “required strongly reductive low molecular weight thiols for activation”. Besides, the “Polymerase activity after second incubation with DTT (% of control)” value in assay [1] (1.1 mM DTT) came out at 0%; in assay [1] (3.3 mM DTT), 1%; in assay [1] (10 mM DTT), 143%; in assay [1] (30 mM DTT), 122%. In addition, the “Polymerase activity after second incubation with MSA (% of control)” value in assay [1] (1.1 mM MSA), in assay [1] (3.3 mM MSA), in assay [1] (10 mM MSA) and in assay [1] (30 mM MSA) was 0% each time. In addition, the “Polymerase activity after second incubation with cysteine (% of control)” value in assay [1] (30 mM cysteine) is reported as 7%. Besides, the “Polymerase activity after second incubation with glutathione (% of control)” value in assay [1] (30 mM glutathione) stood at 2%. Moreover, in assay [2], the “Concentration after which human plasma polymerase activity was eliminated” value is reported as “above 0.47 mM”. The “Concentration that totally eliminated the human plasma RT activity” value in assay [3] is on record as “above 0.4 mM”.
Consider `Cc1ccc(S(=O)(=O)[N-]Cl)cc1.[Na+]` [Chloramine T], for which the “Conditions required to reactivate polymerase activity treated with the agent” value in assay [1] is listed as “required strongly reductive low molecular weight thiols for activation”. Moreover, the “Polymerase activity after second incubation with DTT (% of control)” value was found to be 2% in assay [1] (1.1 mM DTT), 51% in assay [1] (3.3 mM DTT), 80% in assay [1] (10 mM DTT) and 94% in assay [1] (30 mM DTT). In addition, the “Polymerase activity after second incubation with MSA (% of control)” value in assay [1] (1.1 mM MSA) worked out at 6%; in assay [1] (3.3 mM MSA) it was 0%; in assay [1] (10 mM MSA), 1%; in assay [1] (30 mM MSA), 0%. For the same molecule, the “Polymerase activity after second incubation with cysteine (% of control)” value is on record as 4% in assay [1] (10 mM cysteine) and 9% in assay [1] (30 mM cysteine). Besides, the “Polymerase activity after second incubation with glutathione (% of control)” value in assay [1] (10 mM glutathione) was 3%.
In the case of `[Cl-].[K+]` [KCl], the “Activity of indicated enzyme in RT assay, FIV” value in assay [4] (setting [7]) came to 110%. Also, in assay [5] (setting [7]), the “Activity of indicated enzyme in RT assay, plasma 1” value (“Activity … plasma 1” below) was 17% and the “Activity of indicated enzyme in RT assay, plasma 2” value (“Activity … plasma 2” for short) stood at 20%. Moreover, in assay [6] (setting [7]), the “Activity of indicated enzyme in RT assay, HIV” value (from here on “Activity … HIV”) is 87%.
Turning to `O=C(O)CC(S)C(=O)O` (centres unmarked) [MSA, Mercaptosuccinic acid], the “Polymerase activity after second incubation with indicated substance (% of control)” value worked out at 109% in assay [1] (1.1 mM substance), 110% in assay [1] (3.3 mM substance), 64% in assay [1] (10 mM substance) and 7% in assay [1] (30 mM substance).
Consider `O=C([O-])P(=O)(O)O.O=C([O-])P(=O)(O)O.O=C([O-])P(=O)(O)O.[Na+].[Na+].[Na+]` [PFA, trisodium phosophonoformate], for which, in assay [5] (setting [8]), the “Activity … plasma 1” value was 92% and the “Activity … plasma 2” value came out at 94%. The “Activity … HIV” value in assay [6] (setting [8]) amounted to 1%.
Consider `NCCS` [cysteamine], for which the “Polymerase activity after second incubation with indicated substance (% of control)” value was determined as 15% in assay [1] (1.1 mM substance), 9% in assay [1] (3.3 mM substance), 6% in assay [1] (10 mM substance) and 6% in assay [1] (30 mM substance).
In the case of `N[C@@H](CS)C(=O)O` [cysteine], the “Polymerase activity after second incubation with indicated substance (% of control)” value was 72% in assay [1] (1.1 mM substance), 82% in assay [1] (3.3 mM substance), 145% in assay [1] (10 mM substance) and 198% in assay [1] (30 mM substance).
With `Nc1ncnc2c1ncn2[C@H]1CC[C@@H](COP(=O)(O)OP(=O)(O)OP(=O)(O)O)O1` [ddATP], the “Activity of indicated enzyme in RT assay, FIV” value in assay [4] (setting [9]) was 79%. Also, in assay [5] (setting [9]), the “Activity … plasma 1” value is listed as 94% and the “Activity … plasma 2” value came out at 105%. Also, the “Activity … HIV” value in assay [6] (setting [9]) came to 90%.
Taken in the same sequence, the figures for `Nc1ccn([C@H]2CC[C@@H](COP(=O)(O)OP(=O)(O)OP(=O)(O)O)O2)c(=O)n1` [ddCTP] were 75%, 94%, 103% and 89%.
The matching figures for `Nc1nc2c(ncn2[C@H]2CC[C@@H](COP(=O)(O)OP(=O)(O)OP(=O)(O)O)O2)c(=O)[nH]1` [ddGTP]: 93%, 103%, 109% and 94%.
The matching figures for `Cc1cn([C@H]2CC[C@@H](COP(=O)(O)OP(=O)(O)OP(=O)(O)O)O2)c(=O)[nH]c1=O` [ddTTP]: 28%, 7%, 9% and 18%.
`N[C@@H](CCC(=O)N[C@@H](CS)C(=O)NCC(=O)O)C(=O)O` [glutathione]: the “Polymerase activity after second incubation with indicated substance (% of control)” value amounted to 72% in assay [1] (1.1 mM substance), 78% in assay [1] (3.3 mM substance), 80% in assay [1] (10 mM substance) and 13% in assay [1] (30 mM substance).

The record behind these values is patent US20040110265A1, “Recovery of enzyme activity from enveloped viruses” (priority 2001, published 2004).
